In patent US20260335323A1, “CHIMERIC MOLECULE” (UCL Business Ltd, priority 2023, published 2026):

How the values were obtained:
[1] = test system: Mfn2; experiment: Western blot, Mfn2 degradation in MEF WT; assay type: cell-based, mouse; settings: MEF WT
Method: FIG. 6. ULKTACs rely on ULK1 for the redirection of autophagy components to mitochondria and subsequent mitophagic degradation (A) Western blot of mouse embryonic fibroblasts (MEF) WT and MEF ULK1/2^−/− treated with 1 mM ULKTACs, 5 mM CCCP or both and probed for ULK1, Mfn2 and Actin—quantification of the relative intensity of Mfn2 shown in (B), normalised to Actin. Representative immunofluorescence of MEF WT (C) and MEF ULK1/2^−/− (D) treated with 5 mM CCCP, 1 mM ULKTACs or both and immunostained for Alexa 488 ATP5a and Alexa 647 LC3B. Quantification of the colocalised LC3 to ATP5a spot area shown in WT vs ULK1/2^−/− treated MEF cells shown in (E). Data shown are mean±SEM, n=3, *p<0.05, ** p<0.01, *** p<0.001, Two-way ANOVA with Tukey's multiple comparisons test.
Cells were homogenised in protein lysis buffer consisting of 0.1 M Tris pH 8.0, 0.1 M NaCl, 5% glycerol, IGEPAL® CA-630 (#18896. Sigma-Aldrich) and 5 mM EDTA, 0.1 M N-ethyl maleimide (ThermoFisher, #23030) and protease inhibitor (Cell Signalling Technologies, #5871). Protein concentrations were determined using the BCA assay to ensure equal loading. […] The membranes were immunoblotted with primary antibodies, overnight at 4° C. ULK1 (D8H5) Rabbit mAb (#0854) [1:1000], Phospho-ULK1 (Ser 317) Rabbit antibody (#37762) [1:1000], LC3B Rabbit antibody (#2775) [1:1000], TOM20 (D8T4N) Rabbit mAb (#42406) [1:1000] and, Phospho-Ubiquitin (Ser 65) (E2J6T) Rabbit mAb (#62082) [1:500] were obtained from Cell Signalling Technologies. Recombinant Anti-Vinculin Rabbit antibody (EPR8185) (#ab129002) [1:5000] and Anti-Mitofusin2 mouse antibody (6A8) (#ab56889) [1:1000] were purchased from Abcam. Anti-Actin mouse monoclonal antibody (#A1978) [1:1000] and Anti-rabbit p62/SQSTM1 (#P0067) [1:1000], were purchased from Sigma-Aldrich. Mono- and polyubiquitinylated conjugates monoclonal antibody (FK2) (BML-PW8810-0100) [1:500] was purchased from Enzo Life Sciences. Anti BRD4 (E2A7X) rabbit monoclonal antibody (#13440), Anti c-MYC (D84C12) rabbit monoclonal antibody (#5605) [1:1000], Anti GAPDH (D4C6R) mouse monoclonal antibody (#97166) [1:1000], Anti Max (S20) rabbit monoclonal antibody (#4739) [1:1000] were purchased from Cell Signalling Technologies. Anti Phospho-CHK1 (Ser 345) rabbit monoclonal antibody (#2341) [1:1000], Anti gamma-H2AX (Ser 139) rabbit monoclonal antibody (#2577) [1:1000] were obtained from Cell Signalling Technologies, Anti RPA32/RPA2 (phospho S4/S8) rabbit monoclonal antibody (ab87277) [1:1000] were obtained from Abcam.
Membranes were then incubated with horseradish peroxidase (HRP)-conjugated secondary antibodies (Rabbit #7074 and Mouse #7076) purchased from Cell Signalling Technologies for 1 hour and the HRP signal was detected using EZ-ECL Enhanced Chemiluminescence Detection Kit for HRP (#20-500-500, Sartorius), and imaged with an Alliance Q9 Advanced (UVITec). Where required, membranes were stripped with mild stripping buffer consisting of 0.2 M glycine, 3.47 mM SDS, 1% Tween 20, pH 2.2, blocked for 1 hour with TBS-T+3% BSA and re-probed with primary antibodies.
Therefore, we conclude that NZ-65 and NZ-66 are novel ULKTAC molecules that initiate the recruitment of ULK1 to mitochondria, leading to an increase in local ULK1 activity, the formation of an autophagosome and mitophagy.

[2] = test system: c-MYC controlled genes; experiment: RT-qPCR of c-MYC controlled genes in CAL51 cells; assay type: cell-based, human; settings: 100 nM, 72 hours, vs (+)-JQ1 at equivalent concentration and duration
Method: FIG. 11. RT-qPCR quantification of expression of c-MYC controlled genes in CAL51 triple negative breast cancer cell line treated with DMSO, 100 nM (+)-JQ1 or 100 nM NZ-147 for 72 hours. […] MDM2 (A) and CCNE (B) are controlled by cMYC in oncogenic settings, PAICS (C) is a putative target of c-MYC, and eIF4E (D) is a known target of cMYC. n=3, *p<0.05, ** p<0.01, *** p<0.001.
RNA was extracted with the Qiagen RNeasy Mini kit following manufacturers protocol. RT-qPCR SYBR assay was carried out with Mesa Blue following manufacturers instructions, 80 ng RNA per well, experimental triplicates, BioRad CTX Connect qPCR machine. RNA levels were normalized to GAPDH. Experiments were done in biological triplicate. The primers used were as follows:
The levels of c-MYC controlled genes (determined using RT-qPCR) in CAL51 triple negative breast cancer cell line after treatment with DMSO, 100 nM (+)-JQ1 or 100 nM NZ-147 for 72 hours is shown in FIG. 11. In particular MDM2 (FIG. 11A) and CCNE (FIG. 11B) are controlled by cMYC in oncogenic settings, PAICS (FIG. 11C) is a putative target of c-MYC, and elF4E (FIG. 11D) is a known target of c-MYC.

[3] = test system: H1299 cells; experiment: Cell viability assay (CellTiter Glo), H1299; assay type: cell-based, human; settings: H1299, increasing concentrations
Method: A549 and H1299 cells were seeded in OptiPlate-384 well plates and treated with increasing concentrations of (+)-JQ1 or NZ-147 from 0 μM to 10 µM in Example 8 and with increasing concentrations of NZ-175 from 0 µM to 10 µM in Example 9. Cells were treated for 120 h before using the luciferase based CellTiter Glo assay (Promega) to measure cell viability.
Cell viability assay was performed in A549 and H1299 cells, which were treated with different concentrations of (+)-JQ1 or NZ-147 at 100 nM for 72 hours (FIG. 10B).
Cell viability assay was performed in A549 and H1299 cells, which were treated with different concentrations of NZ-147 at 100 nM for 72 hours (FIG. 16B).

SMILES | degradation of Mfn2 ([1]; co-treatment with CCCP) | degradation of Mfn2 ([1]; compound alone) | impact on c-MYC controlled genes vs (+)-JQ1 [2] | percentage of live cells [3]
O=C(Nc1cc(C(F)(F)F)cc(C(F)(F)F)c1)N[C@@H](C(=O)Nc1ccc(F)cc1F)c1ccc(OCc2cn(CCOCCOCCNC(=O)C(=O)c3c(-c4ccccc4)[nH]c4ccccc34)nn2)cc1 [NZ-65, (R)-2-(3-(3,5-bis(trifluoromethyl)phenyl)ureido)-N-(2,4-difluorophenyl)-2-(4-((1-(2-(2-(2-(2-oxo-2-(2-phenyl-1H-indol-3-yl)acetamido)ethoxy)ethoxy)ethyl)-1H-1,2,3-triazol-4-yl)methoxy)phenyl) acetamide] | further enhanced by co-treatment with CCCP | degradation of Mfn2 |  | 
O=C(Nc1cc(C(F)(F)F)cc(C(F)(F)F)c1)N[C@@H](C(=O)Nc1ccc(F)cc1F)c1ccc(OCc2cn(CCCCCCNC(=O)C(=O)c3c(-c4ccccc4)[nH]c4ccccc34)nn2)cc1 [NZ-66, (R)-2-(3-(3,5-bis(trifluoromethyl)phenyl)ureido)-N-(2,4-difluorophenyl)-2-(4-((1-(6-(2-oxo-2-(2-phenyl-1H-indol-3-yl)acetamido)hexyl)-1H-1,2,3-triazol-4-yl)methoxy)phenyl) acetamide] | further enhanced by co-treatment with CCCP | degradation of Mfn2 |  | 
Cc1sc2c(c1C)C(c1ccc(Cl)cc1)=N[C@@H](CC(=O)NCCOCCOCCOCCn1cc(COc3ccc([C@@H](NC(=O)Nc4cc(C(F)(F)F)cc(C(F)(F)F)c4)C(=O)Nc4ccc(F)cc4F)cc3)nn1)c1nnc(C)n1-2 [NZ-147, (R)-2-(3-(3,5-bis(trifluoromethyl)phenyl)ureido)-2-(4-((1-(1-((S)-4-(4-chlorophenyl)-2,3,9-trimethyl-6H-thieno[3,2-f][1,2,4]triazolo[4,3-a][1,4]diazepin-6-yl)-2-oxo-6,9, 12-trioxa-3-azatetradecan-14-yl)-1H-1,2,3-triazol-4-yl)methoxy)phenyl)-N-(2,4-difluorophenyl) acetamide] |  |  | significantly more profound impact | dose-dependent decrease in the percentage of live cells
